Results taken from patent US20230266302A1, “SYNTHESIS AND USE OF N-BENZYL SULFONAMIDES” (THE UNIVERSITY OF TULSA, priority 2020, published 2023).

Legend:
Test in all cases: ATP level assay (CellTiter-Glo), percent of control
Assay type in all cases: cell-based
SkBr3 (breast cancer) = conditions: two hour incubation; for activity at 100 µM: Homo sapiens, SK-BR-3, 2 h, compound alone, control DMSO, read-out: POC (percent of control) SkBr3
Description: (§1) In the present method, the method of using the available assays has been modified to measure the short-term effect of compounds of interest on ATP levels in the cells. […] In the modified method, the control and test cells are initially treated with the metabolic inhibitor for a period of about thirty minutes to about four hours. Typically, the treatment of the cells with the metabolic inhibitor is for one hour prior to adding the compound to be screened for anti-cancer properties. However, simultaneous treatment with the metabolic inhibitor and the compound being screened should provide satisfactory results. […] ATP synthesis in cells occurs over multiple biochemical pathways. These pathways are very responsive to metabolic inhibitors and/or changes in available nutrients. By incorporating a metabolic inhibitor which is known to impact certain pathways, the disclosed method provides for measurement of a compound's direct effects on the remaining metabolic pathways available for ATP synthesis in the cell.
(§2) Following treatment of the control and test cells with the metabolic inhibitor, the method calls for addition of the compound to be screened for anti-cancer properties to the cells. Following addition of the compound of interest, the assay is allowed to continue for about one hour to about four hours or depending on the luminescing agent up to eighteen hours. However, approximately 60 minutes will be sufficient to determine the ATP inhibiting effect of the compound to be screened on the cells. Following completion of the selected time period, the ATP level within the cell is determined. ATP levels can be determined by luminescence according to standard measuring procedures, i.e. the luminescence level of the assay from the living cells treated with the two component composition is compared to the luminescence level of the assay from the living cells without the two component composition, i.e., the control experiment. Thus, the ATP levels are determined without killing the cells during the incubation of the cells in the presence of the compound of interest. As a result, the measured reduction in ATP level corresponds directly to the inhibition of the metabolic pathways uninhibited by the metabolic blocker.
(§3) A wide variety of ATP luminescing detection reagents are available commercially. So long as the reagent produces a luminescence in the presence of ATP, the reagent will be suitable for use in the present method. Suitable reagents include but are not limited to any ATP dependent luciferase such as but not limited to firefly luciferase, other modified luciferase based reagents, i.e. luciferase derivatives. According to the rapid method for determining the anti-cancer activity of a compound, a sample of living cells is distributed across a number of testing wells. Typically, 96-well plates are used; however, the number of wells is not critical to the current method. When using a 96-well plate the number of living cells will commonly be about 20,000. The sample wells contain a cell growth medium to promote cell health and growth and an additive to prevent bacterial contamination of the wells. One common example of the cell growth medium is DMEM with 10% FBS as described above. One example of the additive to prevent bacterial contamination is a solution of penicillin G and streptomycin referred to commonly as Pen-Strep. The Pen-Strep solution typically contains 5000 units of penicillin G and 5000 micrograms of streptomycin. Thus, the rapid determination of anti-cancer compounds can be carried out using the following method. • The desired number of cells are distributed in a 96-well plate containing 100 μL DMEM plus 10% FBS with optional Pen-Strep. • After 24 hours, cells are treated with the compound of interest or a 5% solution of dimethyl sulfoxide (DMSO) in water as a control. • The time period for exposure to the compound of interest and the DMSO control will vary depending on the luminescing detection reagent. […]

MCF7 (breast cancer) = conditions: two hour incubation; for activity at 100 µM: Homo sapiens, MCF7, 2 h, compound alone, control DMSO, read-out: POC (percent of control) MCF7
Description: as §1, §2, §3

H293 (kidney cancer) = conditions: two hour incubation; for activity at 100 µM: 2 h, compound alone, control DMSO, read-out: POC (percent of control) H293
Description: as §1, §2, §3

[1] = system: BxPC3 (pancreatic cancer); conditions: two hour incubation; for activity at 100 µM: Homo sapiens, BXPC-3, 2 h, compound alone, control DMSO, read-out: POC (percent of control) BxPC3
Description: as §1, §2, §3

[2] = system: MCF10A (non-cancerous breast); conditions: two hour incubation; for activity at 100 µM: Homo sapiens, MCF-10A, 2 h, compound alone, control DMSO, read-out: POC (percent of control) MCF10A
Description: as §1, §2, §3

HeLa (cervical cancer) = conditions: two hour incubation; for activity at 100 µM: Homo sapiens, HeLa, 2 h, compound alone, control DMSO, read-out: POC (percent of control) HeLa
Description: as §1, §2, §3

T47D (breast cancer) = conditions: two hour incubation; for activity at 100 µM: Homo sapiens, T47D, 2 h, compound alone, control DMSO, read-out: POC (percent of control) T47D
Description: as §1, §2, §3

PC3 (prostate cancer) = conditions: two hour incubation; for activity at 100 µM: 2 h, compound alone, control DMSO, read-out: POC (percent of control) PC3
Description: as §1, §2, §3

MDA-MB (breast cancer) = conditions: two hour incubation; for activity at 100 µM: 2 h, compound alone, control DMSO, read-out: POC (percent of control) MDA-MB
Description: as §1, §2, §3

NCI-H196 (lung cancer) = conditions: two hour incubation; for activity at 100 µM: NCI-H196, 2 h, compound alone, control DMSO, read-out: POC (percent of control) NCI-H196
Description: as §1, §2, §3

HDF (normal cells) = conditions: two hour incubation; for activity at 100 µM: 2 h, compound alone, control DMSO, read-out: POC (percent of control) HDF
Description: as §1, §2, §3

[3] = compound 100 uM + 2DG (about 10-20 mM)
[4] = compound 100 uM + rotenone (approximately 1.25 μM)

Structure (SMILES) | activity at 100 µM (SkBr3 (breast cancer)) [%] | POC (percent of control) SkBr3 (SkBr3 (breast cancer); [3]) | POC (percent of control) SkBr3 (SkBr3 (breast cancer); [4]) | activity at 100 µM (MCF7 (breast cancer)) [%] | POC (percent of control) MCF7 (MCF7 (breast cancer); [3]) | POC (percent of control) MCF7 (MCF7 (breast cancer); [4]) | activity at 100 µM (H293 (kidney cancer)) [%] | POC (percent of control) H293 (H293 (kidney cancer); [3]) | POC (percent of control) H293 (H293 (kidney cancer); [4]) | activity at 100 µM [1] [%] | POC (percent of control) BxPC3 [1, 4] | activity at 100 µM [2] [%] | POC (percent of control) MCF10A [2, 3] | POC (percent of control) MCF10A [2, 4] | activity at 100 µM (HeLa (cervical cancer)) [%] | POC (percent of control) HeLa (HeLa (cervical cancer); [3]) | POC (percent of control) HeLa (HeLa (cervical cancer); [4]) | activity at 100 µM (T47D (breast cancer)) [%] | POC (percent of control) T47D (T47D (breast cancer); [3]) | POC (percent of control) T47D (T47D (breast cancer); [4]) | also measured
CS(=O)(=O)NCc1c[nH]c2ccccc12 [Compound 26, N-(1H-indol-3-ylmethyl)methanesulfonamide] | 109 | 95.7% of control | 97.1% of control | 114 | 95.9% of control | 119.8% of control | 110 | 72.9% of control | 72% of control | 99.1 | 88.8% of control | 106 | 99.9% of control | 81% of control | 90.4 | 106.9% of control | 96.3% of control | 93.3 | 101% of control | 90.8% of control | POC (percent of control) BxPC3 [1, 3]: 86.6% of control; activity at 100 µM (PC3 (prostate cancer)): 92.3%; POC (percent of control) PC3 (PC3 (prostate cancer); [3]): 111.5% of control; POC (percent of control) PC3 (PC3 (prostate cancer); [4]): 89.6% of control; activity at 100 µM (MDA-MB (breast cancer)): 90.2%; POC (percent of control) MDA-MB (MDA-MB (breast cancer); [3]): 87.6% of control; POC (percent of control) MDA-MB (MDA-MB (breast cancer); [4]): 79.2% of control; activity at 100 µM (NCI-H196 (lung cancer)): 220%; POC (percent of control) NCI-H196 (NCI-H196 (lung cancer); [3]): 91.3% of control; POC (percent of control) NCI-H196 (NCI-H196 (lung cancer); [4]): 80.8% of control; activity at 100 µM (HDF (normal cells)): 106%; POC (percent of control) HDF (HDF (normal cells); [3]): 91.1% of control; POC (percent of control) HDF (HDF (normal cells); [4]): 86.9% of control
COc1ccc(S(=O)(=O)NCc2c[nH]c3ccccc23)cc1 [Compound 23, N-(1H-indol-3-ylmethyl)-4-methoxybenzenesulfonamide] | 85.9 | 75.5% of control | 87.7% of control | 96.3 | 93.6% of control | 121.1% of control | 92.1 | 47.4% of control | 65.3% of control | 95.9 | 78.5% of control | 85 | 82.8% of control | 85.1% of control | 84.1 | 86.9% of control | 93.7% of control | 54 | 46.6% of control | 71.7% of control | activity at 100 µM (PC3 (prostate cancer)): 77.3%; POC (percent of control) PC3 (PC3 (prostate cancer); [3]): 92.9% of control; POC (percent of control) PC3 (PC3 (prostate cancer); [4]): 87.9% of control; activity at 100 µM (MDA-MB (breast cancer)): 98.6%; POC (percent of control) MDA-MB (MDA-MB (breast cancer); [3]): 85.9% of control; POC (percent of control) MDA-MB (MDA-MB (breast cancer); [4]): 83% of control; activity at 100 µM (NCI-H196 (lung cancer)): 93%; POC (percent of control) NCI-H196 (NCI-H196 (lung cancer); [3]): 83.5% of control; POC (percent of control) NCI-H196 (NCI-H196 (lung cancer); [4]): 85.6% of control; activity at 100 µM (HDF (normal cells)): 74.6%; POC (percent of control) HDF (HDF (normal cells); [3]): 90.6% of control; POC (percent of control) HDF (HDF (normal cells); [4]): 119.9% of control
Cn1cc(CNS(=O)(=O)c2ccc(Cl)cc2)cn1 [Compound 11, 4-chloro-N-[(1-methyl-1H-pyrazol-4-yl)methyl]benzenesulfonamide] | 101 | 99.7% of control | 95.3% of control | 118 | 98.4% of control | 94.6% of control | 92.8 | 87.4% of control | 88.3% of control | 99.2 | 78% of control | 95.4 | 95.8% of control | 93.7% of control | 103 | 117.6% of control | 96.4% of control | 59.3 | 90.4% of control | 99.6% of control | POC (percent of control) BxPC3 [1, 3]: 83.8% of control; activity at 100 µM (PC3 (prostate cancer)): 113%; POC (percent of control) PC3 (PC3 (prostate cancer); [3]): 94.6% of control; POC (percent of control) PC3 (PC3 (prostate cancer); [4]): 96.1% of control; activity at 100 µM (MDA-MB (breast cancer)): 95.3%; POC (percent of control) MDA-MB (MDA-MB (breast cancer); [3]): 82.4% of control; POC (percent of control) MDA-MB (MDA-MB (breast cancer); [4]): 97.9% of control; activity at 100 µM (NCI-H196 (lung cancer)): 95.2%; POC (percent of control) NCI-H196 (NCI-H196 (lung cancer); [3]): 114.7% of control; POC (percent of control) NCI-H196 (NCI-H196 (lung cancer); [4]): 88.9% of control; activity at 100 µM (HDF (normal cells)): 77.4%; POC (percent of control) HDF (HDF (normal cells); [3]): 101.3% of control; POC (percent of control) HDF (HDF (normal cells); [4]): 89.8% of control
